Values of other authors as cited in patent US9446036B2, “Compositions of a polyorthoester and an aprotic solvent” (Heron Therapeutics, Inc., priority 2013, dated 2016).

Settings: room temperature (20-25° C.)

Compound	Water Miscibility
CC1COC(=O)O1 (centres unmarked) [4-methyl-1,3-diololan-2-one]	water miscible
O=C1CCCN1C1CCCCC1 [N-cyclohexyl-2-pyrrolidone]	poorly miscible
CN1CCCC1=O [N-methyl-2-pyrrolidone (NMP), N-methyl-2-pyrrolidone]	water miscible
O=C(OCc1ccccc1)c1ccccc1 [benzyl benzoate]	poorly miscible
C[S+](C)[O-] [dimethyl sulfoxide]	water miscible
O=C1CCCCCO1 [ester-caprolactone]	water miscible
CCOC(C)=O [ethyl acetate]	partially miscible
CCOC(=O)C(C)O (centres unmarked) [ethyl lactate]	water miscible
CCCCCCCC/C=C\CCCCCCCC(=O)OCC [ethyl oleate]	poorly miscible
CCCCCCCCCCCCCC(=O)OC(C)C [isopropyl myristate]	poorly miscible
COC(C)=O [methyl acetate]	water miscible
COC(=O)C(C)O (centres unmarked) [methyl lactate]	water miscible
CCN1CCCC1=O [n-ethyl-2-pyrrolidone]	water miscible
C1CCOC1 [tetrahydrofuran]	water miscible
